Twelve compounds from ChEMBL document CHEMBL5137002, “A Comprehensive Biological and Synthetic Perspective on 2-Deoxy-d-Glucose (2-DG), A Sweet Molecule with Therapeutic and Diagnostic Potentials” (J Med Chem, 2022) can be followed below.

Each structure is given as a SMILES string.

For series [1], the system named is Saccharomyces cerevisiae. The experiment in a line: Inhibition of yeast hexokinase assessed as Km.
A short description of series [2]: Competitive inhibition of yeast hexokinase. On the set-up: species or system Saccharomyces cerevisiae.
Series [3] is described as follows: Competitive inhibition of rat brain hexokinase.
In series [4] the test system is SARS-CoV-2. The experiment in a line: Antiviral activity against SARS-CoV-2 B.6 in African green monkey Vero E6 cells assessed as inhibition of virus multiplication. Format: functional, organism-based. The settings on record: Severe acute respiratory syndrome coronavirus 2, B.6, Vero C1008.
The subject of series [5] is SARS-CoV-2. Briefly: Antiviral activity against SARS-CoV-2 B.1.1.7 in African green monkey Vero E6 cells assessed as inhibition of virus multiplication. Format: functional, organism-based. The settings on record: Severe acute respiratory syndrome coronavirus 2, B.1.1.7, Vero C1008.
Series [6] relates to SARS-CoV-2. The experiment in a line: Antiviral activity against SARS-CoV-2 in African green monkey Vero E6 cells assessed as inhibition of virus multiplication at 1 mM. Format: functional. The settings on record: Severe acute respiratory syndrome coronavirus 2, Vero C1008.
For series [7], the system named is SARS-CoV-2. Briefly: Antiviral activity against SARS-CoV-2 in African green monkey Vero cells assessed as inhibition of virus multiplication in presence of extracellular glucose. Format: functional, Severe acute respiratory syndrome coronavirus 2.
In series [8] the test system is U-87 MG. Briefly: Growth inhibition of human U87 cells under hypoxic condition. Format: functional, cell-based, U-87MG ATCC.
For series [9], the system named is U-87 MG. The experiment in a line: Growth inhibition of human U87 cells under normoxic condition. Format: functional, cell-based, U-87MG ATCC.
The nature of series [10]: Drug uptake in tumor of rat measured per gram of tissue at 1 hr. Format: ADME, tissue-based, Neoplasm. The settings on record: in vivo.
The nature of series [11]: Ratio of tumor to blood biodistribution in rat after 60 mins. Format: ADME, organism-based. The settings on record: tumor and blood.

By Km is commonly meant the substrate concentration at which the rate is half of its maximum. Turning to `OC[C@H]1OC(O)[C@H](O)[C@@H](O)[C@@H]1F` (stereo not given in full), the Michaelis-Menten constant (Km) in [1] is 84000 µM.

The term Ki denotes the equilibrium dissociation constant of an inhibitor or competing ligand from its target. Turning to `CC(=O)Nc1c(I)c(C(=O)N[C@H]2C(O)O[C@H](CO)[C@@H](O)[C@@H]2O)c(I)c(N(C)C(C)=O)c1I` (stereo not given in full) [METRIZAMIDE], the inhibition constant (Ki) stood at 700 µM in series [2] and 20000 µM in series [3]. Regarding `OC[C@H]1OC(O)[C@H](O)[C@@H](F)[C@@H]1O` (stereo not given in full), the Michaelis-Menten constant (Km) in series [1] amounted to 70000 µM.

On to `OC[C@H]1OC(O)[C@@H](F)[C@@H](O)[C@@H]1O` (stereo not given in full), for which the Michaelis constant (Km) in series [1] was determined as 410 µM. The term IC50 denotes the concentration that inhibits the measured activity by half. What is called inhibition is how much of the control response was suppressed. `OC[C@H]1OC(O)C[C@@H](O)[C@@H]1O` (stereo not given in full): the IC50 in series [4] and in series [5] was below 1000 µM throughout. The inhibition at 1000 µM in series [6] came to 93%. Also, in series [7], the “inhibition (INH)” value amounted to 7%. In the case of `CC(=O)OC[C@H]1OC(O)C[C@@H](OC(C)=O)[C@@H]1O` (stereo not given in full), the IC50 in [8] and in [9] was 1000 µM each time. A word on the Kp: it is the ratio of the level in a tissue or fluid to that in plasma or blood. `OC[C@H]1OC(O)[C@@H]([18F])[C@@H](O)[C@@H]1O` (stereo not given in full): in series [10], the Drug uptake was found to be 2.65%. Also, in [11], the Kp at 1 h stood at 29.4. As to `OC1C[C@H](O)[C@H](O)CO1` (stereo not given in full), the Km in [1] stood at 590 µM.

With `OC[C@H]1OC(O)[C@H](F)[C@@H](O)[C@@H]1O` (stereo not given in full), the Km in series [1] amounted to 190 µM. Turning to `OC[C@H]1OC(O)C(F)(F)[C@@H](O)[C@@H]1O` (stereo not given in full), the Km in series [1] came to 130 µM. For the compound `NC1C(O)OC(CO)[C@@H](O)[C@@H]1O` (stereo not given in full), the Ki was determined as 700 µM in [2] and 300 µM in series [3]. Compound `OC[C@H]1OC(O)[C@H]([18F])[C@@H](O)[C@@H]1O` (stereo not given in full) [FLUDEOXYGLUCOSE F 18] returned a Drug uptake in series [10] of 2.65%. Further, the partition ratio (Kp) at 1 h in [11] stood at 22.1.
